In patent publication US20230074558A1, “DIMERIC COMPOUNDS AS STING AGONISTS” (Mersana Therapeutics, Inc., priority 2019, published 2023) one finds EC50 data, which are given here for 27 compounds.

Common to all, as to type: cell-based
The target of experiment [1] is T1, human STING (homozygous HAQ allele) (Homo sapiens, UniProt Q86WV6, G230A/H232R/R293Q/R71H).
T1 construct: THP1-Dual™ Human Monocytes cells with the homozygous HAQ allele, known to be a natural variant allele of STING; host or cells: THP1-Dual human monocytes
Description: Activation of human STING signaling in THP1-Dual Human Monocytes cells, IRF3 luciferase reporter induction. The conditions noted are these: 24 hours incubation. The procedure: (§1) THP1-Dual™ Human Monocytes cells with the homozygous HAQ allele, known to be a natural variant allele of STING occurring in ˜20% of the human population (Invivogen) have been engineered with two independent gene reporter systems: a secreted embryonic alkaline phosphatase (SEAP) reporter gene for NFkB activity, and secreted luciferase reporter for […] (IRF3) activity were used. 4×10^5 THP1-Dual™ cells were incubated with test Compounds in a 5-fold titration steps from 1 to 0.0128 μM in RPMI media with 10% FBS, for 24 hours at 37° C. with 5% CO2. Cell culture supernatants (20 μl) from each incubated sample was added to resuspended QUANTI-Blue™ Solution (Invivogen, 180 μl) in each well of a flat-bottom 96-well plate, then incubated for 2 h. NFkB levels were evaluated using a spectrophotometer at 620-655 nm.
(§2) To evaluate IRF3 reporter levels, cell culture supernatant (20 μl) from each incubated sample was added to QUANTI-Luc™ assay solution (Invivogen, 50 μl), and the luminescence was measured with a SpectraMax M3 spectrophotometer (Molecular Devices).
(§3) The EC50 value was determined from the dose response curve based on reference Compounds. Table A provides the results for IRF3 reporter induction THP1-Dual™ Human Monocytes cells and Table B provides the results for IRF3 reporter induction in THP1-Dual™ KI-hSTING-R232 Cells (“A” means <1 μM; “B” means ≥1 μM and <10 μM; “C” means ≥10 μM).
In general terms: Reporter assays use an easily measured gene product as a stand-in for the process of interest.

The target in the next experiment is T2, R232 hSTING variant (Homo sapiens, UniProt Q86WV6, H232R).
T2 construct: host or cells: THP1-Dual KO-STING cells (knock-in: THP1-Dual KI-hSTING-R232)
Description: IRF3 reporter induction in THP1-Dual KI-hSTING-R232 Cells. As to conditions: THP1-Dual KI-hSTING-R232 Cells (R232 haplotype). The procedure: as §1, §2
NFkB and IRF3 reporter levels were also determined for THP1-Dual™ KI-hSTING-H232 Cells and THP1-Dual™ KI-hSTING-R232 Cells. THP1-Dual™ KI-hSTING-H232 Cells (R232H Haplotype) were generated from THP1-Dual™ KO-STING cells by knockin of the intronless coding sequence (from the ATG to TGA) of the R232H human STING variant (Invivogen). R232H has been identified as a natural variant allele of STING occurring in ˜14% of the human population. THP1-Dual™ KI-hSTING-R232 Cells (R232 Haplotype) were generated from THP1-Dual™ KO-STING cells by knockin of the intronless coding sequence (from the ATG to the TGA) of the R232 hSTING variant. Genomic studies indicate that this variant, which contains an arginine at position 232 (R232), is the most prevalent variant with an occurrence (homozygous allele) of ˜45-58% in the human population.
as §3

A further experiment addresses T3, human STING (Homo sapiens, UniProt Q86WV6, G230A/H232R/R293Q/R71H).
T3 construct: host or cells: THP1-Dual cells, digitonin-permeabilized
In words: Activation of human STING signaling in permeabilized THP1-Dual cells, IRF3 induction. As to conditions: digitonin-permeabilized THP1-Dual cells, 30 minutes on ice then 24 h. The protocol:
4×10^5 THP1-Dual™ cells (NF-κB-SEAP and IRF-Lucia luciferase Reporter Monocytes, Invivogen) were incubated with test Compounds in a 5-fold titration steps from […] in permeabilized buffer (50 mM HEPES pH 7.0, 100 mM KCl, 3 mM MgCl2, 85 mM sucrose, 0.2% BSA, 1 mM ATP, 0.1 mM GTP, 0.1 mM TTP, […]) for 30 minutes on ice. Cells were then washed and incubated in a fresh RPMI media with 10% FBS at 37° C. with 5% CO2 for 24 h. Cell culture supernatants from each sample were collected and NFkB and IRF3 were evaluated as above. Table B provides the results for IRF3 induction (“A” means <1 μM; “B” means ≥1 μM and <10 μM; “C” means ≥10 μM).

T1 sequence (Q86WV6 whole entry R71H/G230A/H232R/R293Q): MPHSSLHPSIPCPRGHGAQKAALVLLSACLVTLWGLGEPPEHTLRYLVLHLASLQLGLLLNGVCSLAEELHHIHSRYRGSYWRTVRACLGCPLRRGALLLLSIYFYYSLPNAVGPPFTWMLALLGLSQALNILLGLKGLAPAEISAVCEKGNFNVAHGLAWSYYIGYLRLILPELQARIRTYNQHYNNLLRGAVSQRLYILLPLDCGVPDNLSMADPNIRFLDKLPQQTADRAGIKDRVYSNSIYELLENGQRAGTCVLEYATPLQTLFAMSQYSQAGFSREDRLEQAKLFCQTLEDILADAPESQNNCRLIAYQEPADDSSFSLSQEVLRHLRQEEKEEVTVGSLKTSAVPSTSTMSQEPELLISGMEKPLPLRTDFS
T3 sequence (Q86WV6 whole entry R71H/G230A/H232R/R293Q): as above
T2 sequence (Q86WV6 whole entry H232R): as the sequence (Q86WV6 whole entry R71H/G230A/H232R/R293Q) above, with H71R, A230G, Q293R counted along it

In the case of `COc1cc2sc(C(=O)CCC(=O)O)cc2cc1NCCC(=O)Nc1cc2cc(C(=O)CCC(=O)O)sc2cc1OC` [Compound 226], the concentration for a half-maximal effect (EC50) (in experiment [1]; on R232 hSTING variant) was ≥ 10 µM in each case.

With `COc1cc2sc(C(=O)CCC(=O)O)cc2c(F)c1OC/C=C/COc1c(OC)cc2sc(C(=O)CCC(=O)O)cc2c1F` [Compound 203, (E)-4,4′-((but-2-ene-1,4-diylbis(oxy))bis(4-fluoro-6-methoxybenzo[b]thiophene-5,2-diyl))bis(4-oxobutanoic acid)], the concentration for a half-maximal effect (EC50) in experiment [1] is < 1 µM; at R232 hSTING variant it was 1 to 10 µM.

Take `COc1cc2sc(C(=O)CCC(=O)O)cc2cc1NC(=O)C1(C(=O)Nc2cc3cc(C(=O)CCC(=O)O)sc3cc2OC)CCOCC1` [Compound 218]: the EC50 (in experiment [1]; on R232 hSTING variant) was ≥ 10 µM each time.

Take `COc1cc2sc(C(=O)CCC(=O)O)cc2cc1NC(=O)CCOc1c(OC)cc2sc(C(=O)CCC(=O)O)cc2c1F` [Compound 206]: the EC50 was ≥ 10 µM in experiment [1] and < 1 µM at R232 hSTING variant.

For `COc1cc2sc(C(=O)CCC(=O)O)cc2cc1NC(=O)CC(=O)Nc1cc2cc(C(=O)CCC(=O)O)sc2cc1OC` [Compound 224], the concentration for a half-maximal effect (EC50) (in experiment [1]; on R232 hSTING variant) was ≥ 10 µM throughout.

Consider `C=C(COc1cc2cc(C(=O)CCC(=O)O)sc2cc1OC)COc1c(OC)cc2sc(C(=O)CCC(=O)O)cc2c1F` [Compound 207, 4-(5-((2-(((2-(3-carboxypropanoyl)-4-fluoro-6-methoxybenzo[b]thiophen-5-yl)oxy)methyl)allyl)oxy)-6-methoxybenzo[b]thiophen-2-yl)-4-oxobutanoic acid], for which the half-maximal effective concentration (EC50) (in experiment [1]; on R232 hSTING variant) was < 1 µM in each case.

On to `O=C(O)CCC(=O)c1nc2ccc(NC(=O)COc3ccc4nc(C(=O)CCC(=O)O)sc4c3)cc2s1` [Compound 18], for which the EC50 in experiment [1] was < 1 µM.

Turning to `O=C(O)CCC(=O)c1nc2ccc(-c3ccccc3-c3ccc4nc(C(=O)CCC(=O)O)sc4c3)cc2s1` [Compound 9, 4,4′-(1,2-phenylenebis(benzo[d]thiazole-6,2-diyl))bis(4-oxobutanoic acid)], the EC50 (in experiment [1]; at human STING) was ≥ 10 µM in each case.

Consider `COc1cc2sc(C(=O)CCC(=O)O)cc2c(F)c1OCC#CCOc1c(OC)cc2sc(C(=O)CCC(=O)O)cc2c1F` [Compound 227], for which the concentration giving a half-maximal response (EC50) (in experiment [1]; at R232 hSTING variant) was ≥ 10 µM in each case.

Consider `COc1cc2sc(C(=O)CCC(=O)O)cc2cc1/C=C/C(=O)Nc1cc2cc(C(=O)CCC(=O)O)sc2cc1OC` [Compound 229], for which the 50% effective concentration (EC50) (in experiment [1]; on R232 hSTING variant) was ≥ 10 µM each time.

Turning to `COc1cc2sc(C(=O)CCC(=O)O)cc2cc1NC(=O)C1CCN(c2cc3cc(C(=O)CCC(=O)O)sc3cc2OC)C1=O` (stereo not shown) [Compound 221], the EC50 (in experiment [1]; at R232 hSTING variant) was ≥ 10 µM each time.

For `C=C(COc1c(OC)cc2sc(C(=O)CCC(=O)OC)nc2c1F)COc1c(OC)cc2sc(C(=O)CCC(=O)OC)nc2c1F` [compound 264], the results for the EC50 (in experiment [1]; on R232 hSTING variant) were < 1 µM and ≥ 10 µM, respectively.

As for `COc1cc2sc(C(=O)CCC(=O)O)cc2cc1NC(=O)COc1c(OC)cc2sc(C(=O)CCC(=O)O)cc2c1F` [Compound 222], the EC50 (in experiment [1]; on R232 hSTING variant) was ≥ 10 µM each time.

In the case of `COc1cc2sc(C(=O)CCC(=O)O)cc2c(F)c1OCC(=CC(=O)OC(C)(C)C)COc1c(OC)cc2sc(C(=O)CCC(=O)O)cc2c1F` [Compound 209], the concentration for a half-maximal effect (EC50) (in experiment [1]; at R232 hSTING variant) was ≥ 10 µM throughout.

`O=C(O)CCC(=O)c1nc2ccc(/C=C\c3ccc4nc(C(=O)CCC(=O)O)sc4c3)cc2s1` [Compound 6, (Z)-4,4′-(ethene-1,2-diylbis(benzo[d]thiazole-6,2-diyl))bis(4-oxobutanoic acid)]: the EC50 (in experiment [1]; at human STING) was ≥ 10 µM each time.

As for `COc1cc2sc(C(=O)CCC(=O)O)cc2c(F)c1OCc1ccccc1COc1c(OC)cc2sc(C(=O)CCC(=O)O)cc2c1F` [Compound 211, 4,4′-(((1,2-phenylenebis(methylene))bis(oxy))bis(4-fluoro-6-methoxybenzo[b]thiophene-5,2-diyl))bis(4-oxobutanoic acid)], the EC50 (in experiment [1]; on R232 hSTING variant) was < 1 µM in each case.

With `O=C(O)CCC(=O)c1cc2ccc(-c3ccccc3-c3ccc4cc(C(=O)CCC(=O)O)sc4c3)cc2s1` [Compound 30, 4,4′-(1,2-phenylenebis(benzo[b]thiophene-6,2-diyl))bis(4-oxobutanoic acid)], the 50% effective concentration (EC50) (in experiment [1]; on human STING) was 1 to 10 µM each time.

As for `COc1cc2sc(C(=O)CCC(=O)O)cc2cc1CCCC(=O)Nc1cc2cc(C(=O)CCC(=O)O)sc2cc1OC` [Compound 220], the EC50 (in experiment [1]; on R232 hSTING variant) was ≥ 10 µM throughout.

On to `COc1cc2sc(C(=O)CCC(=O)O)cc2cc1NC(=O)C1(C(=O)Nc2cc3cc(C(=O)CCC(=O)O)sc3cc2OC)CC1` [Compound 205], for which the half-maximal effective concentration (EC50) (in experiment [1]; on R232 hSTING variant) was ≥ 10 µM each time.

On to `C=C(COc1cc2cc(C(=O)CCC(=O)O)sc2cc1OC)COc1cc2cc(C(=O)CCC(=O)O)sc2cc1OC` [Compound 40, 4,4′-(((2-methylenepropane-1,3-diyl)bis(oxy))bis(6-methoxybenzo[b]-thiophene-5,2-diyl))bis(4-oxobutanoic acid)], for which the EC50 in experiment [1] was < 1 µM; on R232 hSTING variant it was ≥ 10 µM.

As for `COc1cc2sc(C(=O)CCC(=O)O)cc2c(F)c1OCC(=CCO)COc1c(OC)cc2sc(C(=O)CCC(=O)O)cc2c1F` [Compound 210, 4,4′-(((2-(2-hydroxyethylidene)propane-1,3-diyl)bis(oxy))bis(4-fluoro-6-methoxybenzo[b]thiophene-5,2-diyl))bis(4-oxobutanoic acid)], the concentration for a half-maximal effect (EC50) (in experiment [1]; on R232 hSTING variant) was < 1 µM throughout.

Regarding `C=C(COc1c(OC)cc2sc(C(=O)CCC(=O)O)cc2c1F)COc1c(OC)cc2sc(C(=O)CCC(=O)O)cc2c1F` [Compound 202, 4,4′-(((2-methylenepropane-1,3-diyl)bis(oxy))bis(4-fluoro-6-methoxybenzo[b]-thiophene-5,2-diyl))bis(4-oxobutanoic acid)], the EC50 (in experiment [1]; on R232 hSTING variant) was < 1 µM each time.

Regarding `COc1cc2sc(C(=O)CCC(=O)O)cc2cc1NC(=O)C1(C(=O)Nc2cc3cc(C(=O)CCC(=O)O)sc3cc2OC)CCC1` [Compound 223], the EC50 (in experiment [1]; at R232 hSTING variant) was ≥ 10 µM each time.

With `COC(=O)CCC(=O)c1cc2c(F)c(OCC3(COc4c(OC)cc5sc(C(=O)CCC(=O)OC)cc5c4F)COC3)c(OC)cc2s1` [Compound 262], in experiment [1], the EC50 is ≥ 10 µM.

Consider `COc1cc2sc(C(=O)CCC(=O)O)cc2c(F)c1OC/C=C\COc1c(OC)cc2sc(C(=O)CCC(=O)O)cc2c1F` [Compound 204, (Z)-4,4′-((but-2-ene-1,4-diylbis(oxy))bis(4-fluoro-6-methoxybenzo[b]-thiophene-5,2-diyl))bis(4-oxobutanoic acid)], for which the EC50 (in experiment [1]; at R232 hSTING variant) was < 1 µM each time.

For the compound `COc1cc2sc(C(=O)CCC(=O)O)cc2cc1CCC(=O)Nc1cc2cc(C(=O)CCC(=O)O)sc2cc1OC` [Compound 219], the EC50 (in experiment [1]; at R232 hSTING variant) was ≥ 10 µM each time.

With `COc1cc2sc(C(=O)CCC(=O)O)cc2c(F)c1OCC(=CC(=O)F)COc1c(OC)cc2sc(C(=O)CCC(=O)O)cc2c1F` [Compound 208], the concentration for a half-maximal effect (EC50) (in experiment [1]; on R232 hSTING variant) was ≥ 10 µM throughout.

What is called EC50 is the concentration at which the effect is half-maximal. Read a low EC50 as greater potency.
